Data: ChEMBL document CHEMBL3879915, “Methods of inhibiting PRMT5” (2014)

How the values were obtained:
[1] = Antiproliferative activity against human Z138 cells assessed as inhibition of cell viability after 5 days by Cell-Titer Glo assay; format: functional, cell-based; settings: Z-138, 120 h
[2] = target: Protein arginine N-methyltransferase 5 (Homo sapiens, UniProt O14744); assay: Inhibition of PRMT5 in human Z138 cells assessed as decrease in di-methyl arginine levels after 96 hrs by Western blot method; format: cell-based
Sequence of Protein arginine N-methyltransferase 5 (O14744 whole entry, the tested form may be a part): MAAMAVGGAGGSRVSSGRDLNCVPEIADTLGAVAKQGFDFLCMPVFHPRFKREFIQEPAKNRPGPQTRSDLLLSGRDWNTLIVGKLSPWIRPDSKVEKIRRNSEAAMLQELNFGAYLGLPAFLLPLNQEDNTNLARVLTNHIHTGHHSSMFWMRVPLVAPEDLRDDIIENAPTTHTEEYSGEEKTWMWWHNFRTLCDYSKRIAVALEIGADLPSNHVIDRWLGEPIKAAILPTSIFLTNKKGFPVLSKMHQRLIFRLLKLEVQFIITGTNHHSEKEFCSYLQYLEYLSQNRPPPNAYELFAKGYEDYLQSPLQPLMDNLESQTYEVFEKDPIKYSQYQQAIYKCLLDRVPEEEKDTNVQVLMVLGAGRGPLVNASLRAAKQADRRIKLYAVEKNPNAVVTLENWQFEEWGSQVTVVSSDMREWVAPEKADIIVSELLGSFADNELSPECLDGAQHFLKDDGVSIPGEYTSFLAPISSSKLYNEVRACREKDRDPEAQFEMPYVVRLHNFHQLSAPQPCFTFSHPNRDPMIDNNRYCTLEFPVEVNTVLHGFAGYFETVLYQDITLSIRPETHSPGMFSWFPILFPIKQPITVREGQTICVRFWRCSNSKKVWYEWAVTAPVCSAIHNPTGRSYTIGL

[3] = target: PRMT5/MEP50 complex (Homo sapiens, UniProt O14744); assay: Inhibition of recombinant human fetal brain FLAG-tagged PRMT5/full length human testis 6His-tagged MEP50 expressed in baculovirus infected insect Sf9 cells using human histone H4 (1 to 15 residues) as substrate preincubated for 30 mins followed by [3H]-SAM addition
Sequence of PRMT5/MEP50 complex (O14744 whole entry, the tested form may be a part): as above
Sequence of PRMT5/MEP50 complex (Q9BQA1 whole entry, further chain, the tested form may be a part): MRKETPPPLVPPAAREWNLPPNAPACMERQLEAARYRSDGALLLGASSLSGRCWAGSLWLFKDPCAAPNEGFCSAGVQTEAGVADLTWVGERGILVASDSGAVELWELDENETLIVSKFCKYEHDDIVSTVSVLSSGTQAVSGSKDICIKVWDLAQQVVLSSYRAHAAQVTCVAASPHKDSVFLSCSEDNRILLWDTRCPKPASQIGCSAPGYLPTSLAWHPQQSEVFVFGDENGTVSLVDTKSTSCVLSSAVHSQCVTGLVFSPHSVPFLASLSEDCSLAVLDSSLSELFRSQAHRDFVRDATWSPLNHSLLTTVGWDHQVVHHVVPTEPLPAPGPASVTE

Row | Compound | EC50 [1] | EC50 [2] | IC50 [3]
1 | Cn1cnc2cc(OCC(=O)NCC(O)CN3CCc4ccccc4C3)ccc21 (stereo not drawn) | 10000 to 50000 nM | 101 to 1000 nM | 101 to 1000 nM
2 | Cn1ncc2c(OCC(=O)NCC(O)CN3CCc4ccccc4C3)cccc21 (stereo not drawn) | 1000 to 10000 nM | < 100 nM | < 100 nM
3 | CN1CCC(n2ncc3ccc(OCC(=O)NCC(O)CN4CCc5ccccc5C4)cc32)CC1 (stereo not drawn) | > 20000 nM | 101 to 1000 nM | < 100 nM
4 | CS(=O)(=O)c1cccc(OCC(=O)NCC(O)CN2CCc3ccccc3C2)c1 (stereo not drawn) | 1000 to 10000 nM | 101 to 1000 nM | < 100 nM
5 | O=C(COc1cccc(C(=O)N2CCOCC2)c1)NCC(O)CN1CCc2ccccc2C1 (stereo not drawn) | 10000 to 50000 nM | 101 to 1000 nM | 101 to 1000 nM
6 | O=C(COc1cccc2ccccc12)NCC(O)CN1CCc2ccccc2C1 (stereo not drawn) | 1000 to 10000 nM | 101 to 1000 nM | < 100 nM
7 | O=C(COc1ccccc1OCCN1CCOCC1)NC[C@H](O)CN1CCc2ccccc2C1 | 10000 to 50000 nM | 101 to 1000 nM | < 100 nM
8 | O=C(COc1ccccc1-c1cc[nH]n1)NC[C@@H](O)CN1CCc2ccccc2C1 | 1000 to 10000 nM | < 100 nM | < 100 nM
9 | Cc1cccc(OCC(=O)NCC(O)CN2CCc3ccccc3C2)c1 (stereo not drawn) | 1000 to 10000 nM | 101 to 1000 nM | < 100 nM
10 | CC(C)(Oc1cccc2cccnc12)C(=O)NCC(O)CN1CCc2ccccc2C1 (stereo not drawn) | 1000 to 10000 nM | 101 to 1000 nM | < 100 nM
11 | O=C(COc1ccccc1C1CCCCC1)NCC(O)CN1CCc2ccccc2C1 (stereo not drawn) | 1000 to 10000 nM | 101 to 1000 nM | < 100 nM
12 | CN1CCOc2cccc(OCC(=O)NCC(O)CN3CCc4ccccc4C3)c21 (stereo not drawn) | 101 to 1000 nM | < 100 nM | < 100 nM
13 | O=C(COc1cccc2ccc(N3CCOCC3)nc12)NCC(O)CN1CCc2ccccc2C1 (stereo not drawn) | 10000 to 50000 nM | 101 to 1000 nM | < 100 nM
14 | O=C(COc1ccccc1)NC[C@H](O)CN1CCc2ccccc2C1 | 10000 to 50000 nM | 101 to 1000 nM | 101 to 1000 nM
15 | O=C(COc1ccc2c(cnn2C2CCNC2)c1)NCC(O)CN1CCc2ccccc2C1 (stereo not drawn) | 10000 to 50000 nM | 101 to 1000 nM | < 100 nM
16 | O=C(COc1c(CN2CCOCC2)ccc2cccnc12)NC[C@H](O)CN1CCc2ccccc2C1 | 10000 to 50000 nM | 101 to 1000 nM | < 100 nM
17 | C[C@H](Oc1cccc2cccnc12)C(=O)NC[C@H](O)CN1CCc2ccccc2C1 | 1000 to 10000 nM | 101 to 1000 nM | < 100 nM
18 | CN(C)c1ccccc1OCC(=O)NCC(O)CN1CCc2ccccc2C1 (stereo not drawn) | 1000 to 10000 nM | < 100 nM | < 100 nM
19 | CN1C(=O)COc2cccc(OCC(=O)NCC(O)CN3CCc4ccccc4C3)c21 (stereo not drawn) | 10000 to 50000 nM | 101 to 1000 nM | < 100 nM
20 | CS(=O)(=O)c1ccccc1OCC(=O)NCC(O)CN1CCc2ccccc2C1 (stereo not drawn) | 1000 to 10000 nM | < 100 nM | < 100 nM
21 | CC(=O)N1CCN(c2ccccc2OCC(=O)NCC(O)CN2CCc3ccccc3C2)CC1 (stereo not drawn) | 10000 to 50000 nM | 101 to 1000 nM | < 100 nM
22 | O=C(COc1ccccc1-c1cc[nH]n1)NC[C@H](O)CN1CCc2ccccc2C1 | > 20000 nM | 101 to 1000 nM | < 100 nM
23 | CS(=O)(=O)Nc1cccc(OCC(=O)NCC(O)CN2CCc3ccccc3C2)c1 (stereo not drawn) | 1000 to 10000 nM | 101 to 1000 nM | < 100 nM
24 | CC(=O)Nc1ccccc1OCC(=O)NCC(O)CN1CCc2ccccc2C1 (stereo not drawn) | > 20000 nM | 101 to 1000 nM | 101 to 1000 nM
25 | O=C(COc1cccc2c1CCNC2)NCC(O)CN1CCc2ccccc2C1 (stereo not drawn) | 1000 to 10000 nM | 101 to 1000 nM | < 100 nM
26 | CN(C)CCOc1ccccc1OCC(=O)NC[C@H](O)CN1CCc2ccccc2C1 | 10000 to 50000 nM | 101 to 1000 nM | < 100 nM

Row | Compound | EC50 [1] | EC50 [2] | IC50 [3]
27 | C[C@@H](Oc1cccc2cccnc12)C(=O)NC[C@H](O)CN1CCc2ccccc2C1 | 101 to 1000 nM | < 100 nM | < 100 nM
28 | O=C(COc1cccc2c1CCCC2)NCC(O)CN1CCc2ccccc2C1 (stereo not drawn) | 1000 to 10000 nM | 101 to 1000 nM | < 100 nM
29 | O=C(COc1ccccc1N1CCOCC1)NC[C@H](O)CN1CCc2ccccc2C1 | 1000 to 10000 nM | < 100 nM | < 100 nM
30 | NS(=O)(=O)c1ccccc1OCC(=O)NCC(O)CN1CCc2ccccc2C1 (stereo not drawn) | 1000 to 10000 nM | 101 to 1000 nM | < 100 nM
31 | O=C(COc1ccccc1N1CCOCC1)NCC(O)CN1CCc2ccccc2C1 (stereo not drawn) | 1000 to 10000 nM | 101 to 1000 nM | < 100 nM
32 | NC(=O)c1ccccc1OCC(=O)NCC(O)CN1CCc2ccccc2C1 (stereo not drawn) | > 20000 nM | 101 to 1000 nM | 101 to 1000 nM
33 | CC(=O)Nc1cccc(OCC(=O)NCC(O)CN2CCc3ccccc3C2)c1 (stereo not drawn) | 10000 to 50000 nM | 101 to 1000 nM | 1000 to 10000 nM
34 | CN1CCN(c2ccccc2OCC(=O)NC[C@H](O)CN2CCc3ccccc3C2)CC1 | 1000 to 10000 nM | 101 to 1000 nM | < 100 nM
35 | O=C(COc1cccc2cccnc12)NC[C@@H](O)CN1CCc2ccccc2C1 | 101 to 1000 nM | < 100 nM | < 100 nM
36 | O=C(COc1cccc2cccnc12)NC[C@H](O)CN1CCc2ccccc2C1 | 10000 to 50000 nM | 101 to 1000 nM | 101 to 1000 nM
37 | O=C(COc1cccc(CN2CCOCC2)c1)NCC(O)CN1CCc2ccccc2C1 (stereo not drawn) | 1000 to 10000 nM | < 100 nM | < 100 nM
38 | CS(=O)(=O)Nc1ccc(OCC(=O)NCC(O)CN2CCc3ccccc3C2)cc1 (stereo not drawn) | > 20000 nM | 101 to 1000 nM | 101 to 1000 nM
39 | CS(=O)(=O)Nc1ccccc1OCC(=O)NCC(O)CN1CCc2ccccc2C1 (stereo not drawn) | 1000 to 10000 nM | 101 to 1000 nM | < 100 nM
40 | O=C(COc1cccc(NC2CCOCC2)c1)NCC(O)CN1CCc2ccccc2C1 (stereo not drawn) | 1000 to 10000 nM | < 100 nM | < 100 nM
41 | O=C(COc1ccccc1-c1cc[nH]n1)NCC(O)CN1CCc2ccccc2C1 (stereo not drawn) | 1000 to 10000 nM | < 100 nM | < 100 nM
42 | COc1ccc2cccc(OCC(=O)NC[C@H](O)CN3CCc4ccccc4C3)c2n1 | 1000 to 10000 nM | 101 to 1000 nM | 101 to 1000 nM
43 | CN(C)c1ccc(OCC(=O)NCC(O)CN2CCc3ccccc3C2)cc1 (stereo not drawn) | 10000 to 50000 nM | 101 to 1000 nM | 101 to 1000 nM
44 | CN1CCC(n2ncc3cc(OCC(=O)NCC(O)CN4CCc5ccccc5C4)ccc32)C1 (stereo not drawn) | 10000 to 50000 nM | 101 to 1000 nM | < 100 nM
45 | C[C@@H](Oc1cccc2cccnc12)C(=O)NC[C@@H](O)CN1CCc2ccccc2C1 | 1000 to 10000 nM | 101 to 1000 nM | < 100 nM
46 | NC(=O)c1cccc(OCC(=O)NCC(O)CN2CCc3ccccc3C2)c1 (stereo not drawn) | 10000 to 50000 nM | 101 to 1000 nM | 101 to 1000 nM
47 | CC(Oc1cccc2cccnc12)C(=O)NCC(O)CN1CCc2ccccc2C1 (stereo not drawn) | 101 to 1000 nM | < 100 nM | < 100 nM
48 | O=C(COc1ccc2cnn(C3CCNCC3)c2c1)NCC(O)CN1CCc2ccccc2C1 (stereo not drawn) | > 20000 nM | 101 to 1000 nM | < 100 nM
49 | O=C(COc1ccccc1N1CCNCC1)NCC(O)CN1CCc2ccccc2C1 (stereo not drawn) | 1000 to 10000 nM | 101 to 1000 nM | < 100 nM
50 | CN(C)c1cccc(OCC(=O)NCC(O)CN2CCc3ccccc3C2)c1 (stereo not drawn) | 1000 to 10000 nM | 101 to 1000 nM | < 100 nM
51 | O=C(COc1cccc2nccnc12)NCC(O)CN1CCc2ccccc2C1 (stereo not drawn) | 1000 to 10000 nM | < 100 nM | < 100 nM
